PubChem BioAssay (NCI)
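GI50 = concentration required for 50% inhibition of growth. TGI is the concentration that stops growth completely.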

Experiments:
Experiment in all cases: NCI-60 cell line screen, 384-well format
CCRF-CEM leukemia = test system: CCRF-CEM leukemia
HOP-62 NSCLC = test system: HOP-62 NSCLC
HCC-2998 colon = test system: HCC-2998 colon
RXF 393 renal = test system: RXF 393 renal
MDA-MB-468 breast = test system: MDA-MB-468 breast
HOP-92 NSCLC = test system: HOP-92 NSCLC
NCI/ADR-RES ovarian = test system: NCI/ADR-RES ovarian
NCI-H322M lung = test system: NCI-H322M lung
SK-OV-3 ovarian = test system: SK-OV-3 ovarian
NCI-H23 lung = test system: NCI-H23 lung
SNB-75 CNS = test system: SNB-75 CNS
SR leukemia = test system: SR leukemia
SW-620 colon = test system: SW-620 colon
MDA-MB-435 melanoma = test system: MDA-MB-435 melanoma
SN12C renal = test system: SN12C renal
SK-MEL-28 melanoma = test system: SK-MEL-28 melanoma
KM12 colon = test system: KM12 colon
SF-295 CNS = test system: SF-295 CNS
SF-268 CNS = test system: SF-268 CNS
786-0 renal = test system: 786-0 renal
HT29 colon = test system: HT29 colon
OVCAR-4 ovarian = test system: OVCAR-4 ovarian
OVCAR-3 ovarian = test system: OVCAR-3 ovarian
A549 NSCLC = test system: A549 NSCLC
T-47D breast = test system: T-47D breast
IGROV1 ovarian = test system: IGROV1 ovarian
NCI-H460 NSCLC = test system: NCI-H460 NSCLC
OVCAR-5 ovarian = test system: OVCAR-5 ovarian
HL-60(TB) leukemia = test system: HL-60(TB) leukemia
SK-MEL-5 melanoma = test system: SK-MEL-5 melanoma
SF-539 CNS = test system: SF-539 CNS
SNB-19 CNS = test system: SNB-19 CNS
LOX IMVI melanoma = test system: LOX IMVI melanoma
PC-3 prostate = test system: PC-3 prostate
M14 melanoma = test system: M14 melanoma
MALME-3M melanoma = test system: MALME-3M melanoma
U251 glioblastoma = test system: U251 glioblastoma
MOLT-4 leukemia = test system: MOLT-4 leukemia
MDA-MB-231 breast = test system: MDA-MB-231 breast
EKVX NSCLC = test system: EKVX NSCLC
CAKI-1 renal = test system: CAKI-1 renal
TK-10 renal = test system: TK-10 renal
NCI-H522 lung = test system: NCI-H522 lung
HS 578T breast = test system: HS 578T breast
NCI-H226 lung = test system: NCI-H226 lung
RPMI-8226 leukemia = test system: RPMI-8226 leukemia
BT-549 breast = test system: BT-549 breast
DU-145 prostate = test system: DU-145 prostate
UACC-62 melanoma = test system: UACC-62 melanoma
A498 renal = test system: A498 renal
COLO 205 colon = test system: COLO 205 colon
UO-31 renal = test system: UO-31 renal
HCT-15 colon = test system: HCT-15 colon
SK-MEL-2 melanoma = test system: SK-MEL-2 melanoma
OVCAR-8 ovarian = test system: OVCAR-8 ovarian
UACC-257 melanoma = test system: UACC-257 melanoma
K-562 leukemia = test system: K-562 leukemia
MCF7 breast = test system: MCF7 breast
HCT-116 colon = test system: HCT-116 colon

Which GI50 (CCRF-CEM leukemia) does the source give for `CO[C@@H](C)Cn1c(=O)n(C)c2cnc3ccc(-c4cncc(C(C)(C)O)c4)cc3c21` here?
The GI50 was 77.9 nM.

And the TGI (CCRF-CEM leukemia)?
The TGI was 707 nM.

What about the GI50 (HOP-62 NSCLC) of the same molecule?
The GI50 was 109 nM.

And the TGI (HOP-62 NSCLC)?
The TGI was 1340 nM.

What about the GI50 (HCC-2998 colon) of the same molecule?
The GI50 was 188 nM.

And the TGI (HCC-2998 colon)?
Its TGI is 2110 nM.

What about the GI50 (RXF 393 renal) of the same molecule?
The GI50 was 54.6 nM.

What about the TGI (RXF 393 renal) of the same molecule?
The TGI was 1370 nM.

What about the GI50 (MDA-MB-468 breast) of the same molecule?
The GI50 was 165 nM.

What about the TGI (MDA-MB-468 breast) of the same molecule?
The TGI was 574 nM.

What about the GI50 (HOP-92 NSCLC) of the same molecule?
The GI50 was 150 nM.

And the TGI (HOP-92 NSCLC)?
The TGI was 702 nM.

And the GI50 (NCI/ADR-RES ovarian)?
The GI50 was 2150 nM.

What about the TGI (NCI/ADR-RES ovarian) of the same molecule?
Its TGI is 15400 nM.

What about the GI50 (NCI-H322M lung) of the same molecule?
The GI50 was 139 nM.

What about the TGI (NCI-H322M lung) of the same molecule?
Its TGI is 2300 nM.

What about the GI50 (SK-OV-3 ovarian) of the same molecule?
Its GI50 is 88.4 nM.

And the TGI (SK-OV-3 ovarian)?
Its TGI is 1010 nM.

And the GI50 (NCI-H23 lung)?
Its GI50 is 319 nM.

And the TGI (NCI-H23 lung)?
The TGI was 2600 nM.

What about the GI50 (SNB-75 CNS) of the same molecule?
Its GI50 is 44 nM.

What about the TGI (SNB-75 CNS) of the same molecule?
Its TGI is 502 nM.

What about the GI50 (SR leukemia) of the same molecule?
The GI50 was 20.2 nM.

And the TGI (SR leukemia)?
Its TGI is 55 nM.

And the GI50 (SW-620 colon)?
Its GI50 is 197 nM.

What about the TGI (SW-620 colon) of the same molecule?
The TGI was 1360 nM.

And the GI50 (MDA-MB-435 melanoma)?
The GI50 was 194 nM.

And the TGI (MDA-MB-435 melanoma)?
The TGI was 2360 nM.

And the GI50 (SN12C renal)?
The GI50 was 84.9 nM.

What about the TGI (SN12C renal) of the same molecule?
Its TGI is 3570 nM.

And the GI50 (SK-MEL-28 melanoma)?
Its GI50 is 221 nM.

What about the TGI (SK-MEL-28 melanoma) of the same molecule?
The TGI was 3480 nM.

What about the GI50 (KM12 colon) of the same molecule?
The GI50 was 136 nM.

What about the TGI (KM12 colon) of the same molecule?
Its TGI is 12900 nM.

What about the GI50 (SF-295 CNS) of the same molecule?
The GI50 was 57 nM.

And the TGI (SF-295 CNS)?
The TGI was 413 nM.

What about the GI50 (SF-268 CNS) of the same molecule?
The GI50 was 293 nM.

And the TGI (SF-268 CNS)?
The TGI was 1770 nM.

What about the GI50 ([…]-0 renal) of the same molecule?
Its GI50 is 133 nM.

And the TGI (786-0 renal)?
Its TGI is 4550 nM.

And the GI50 (HT29 colon)?
Its GI50 is 226 nM.

And the TGI (HT29 colon)?
The TGI was 11100 nM.

And the GI50 (OVCAR-4 ovarian)?
The GI50 was 126 nM.

And the TGI (OVCAR-4 ovarian)?
Its TGI is 722 nM.

What about the GI50 (OVCAR-3 ovarian) of the same molecule?
The GI50 was 84.6 nM.

What about the TGI (OVCAR-3 ovarian) of the same molecule?
Its TGI is 894 nM.

What about the GI50 (A549 NSCLC) of the same molecule?
The GI50 was 70.7 nM.

And the TGI (A549 NSCLC)?
Its TGI is 1180 nM.

And the GI50 (T-47D breast)?
Its GI50 is 77.1 nM.

And the TGI (T-47D breast)?
Its TGI is 406 nM.

And the GI50 (IGROV1 ovarian)?
The GI50 was 35 nM.

What about the TGI (IGROV1 ovarian) of the same molecule?
Its TGI is 173 nM.

And the GI50 (NCI-H460 NSCLC)?
The GI50 was 45.1 nM.

What about the TGI (NCI-H460 NSCLC) of the same molecule?
The TGI was 1570 nM.

What about the GI50 (OVCAR-5 ovarian) of the same molecule?
The GI50 was 206 nM.

And the TGI (OVCAR-5 ovarian)?
Its TGI is 1690 nM.

And the GI50 (HL-60(TB) leukemia)?
The GI50 was 463 nM.

What about the TGI (HL-60(TB) leukemia) of the same molecule?
Its TGI is 1610 nM.

And the GI50 (SK-MEL-5 melanoma)?
The GI50 was 157 nM.

What about the TGI (SK-MEL-5 melanoma) of the same molecule?
The TGI was 463 nM.

And the GI50 (SF-539 CNS)?
The GI50 was 141 nM.

What about the TGI (SF-539 CNS) of the same molecule?
The TGI was 1970 nM.

And the GI50 (SNB-19 CNS)?
Its GI50 is 334 nM.

And the TGI (SNB-19 CNS)?
The TGI was 12600 nM.

What about the GI50 (LOX IMVI melanoma) of the same molecule?
Its GI50 is 78.2 nM.

And the TGI (LOX IMVI melanoma)?
The TGI was 918 nM.

And the GI50 (PC-3 prostate)?
Its GI50 is 84.2 nM.

And the TGI (PC-3 prostate)?
Its TGI is 740 nM.

And the GI50 (M14 melanoma)?
Its GI50 is 151 nM.

What about the TGI (M14 melanoma) of the same molecule?
Its TGI is 1850 nM.

And the GI50 (MALME-3M melanoma)?
Its GI50 is 62.6 nM.

What about the TGI (MALME-3M melanoma) of the same molecule?
Its TGI is 327 nM.

And the GI50 (U251 glioblastoma)?
Its GI50 is 221 nM.

What about the TGI (U251 glioblastoma) of the same molecule?
Its TGI is 3460 nM.

What about the GI50 (MOLT-4 leukemia) of the same molecule?
Its GI50 is 81.2 nM.

And the TGI (MOLT-4 leukemia)?
Its TGI is 299 nM.

What about the GI50 (MDA-MB-231 breast) of the same molecule?
Its GI50 is 57.1 nM.

What about the TGI (MDA-MB-231 breast) of the same molecule?
Its TGI is 20600 nM.

What about the GI50 (EKVX NSCLC) of the same molecule?
The GI50 was 96.1 nM.

And the TGI (EKVX NSCLC)?
Its TGI is 885 nM.

What about the GI50 (CAKI-1 renal) of the same molecule?
The GI50 was 76.1 nM.

What about the TGI (CAKI-1 renal) of the same molecule?
The TGI was 485 nM.

And the GI50 (TK-10 renal)?
The GI50 was 220 nM.

And the TGI (TK-10 renal)?
The TGI was 907 nM.

And the GI50 (NCI-H522 lung)?
The GI50 was 104 nM.

And the TGI (NCI-H522 lung)?
The TGI was 1630 nM.

What about the GI50 (HS 578T breast) of the same molecule?
The GI50 was 35.7 nM.

And the TGI (HS 578T breast)?
Its TGI is 217 nM.

And the GI50 (NCI-H226 lung)?
Its GI50 is 109 nM.

And the TGI (NCI-H226 lung)?
The TGI was 667 nM.

What about the GI50 (RPMI-8226 leukemia) of the same molecule?
The GI50 was 28.2 nM.

And the TGI (RPMI-8226 leukemia)?
The TGI was 78.8 nM.

And the GI50 (BT-549 breast)?
Its GI50 is 96.2 nM.

What about the TGI (BT-549 breast) of the same molecule?
The TGI was 503 nM.

And the GI50 (DU-145 prostate)?
The GI50 was 84.6 nM.

And the TGI (DU-145 prostate)?
The TGI was 2690 nM.

And the GI50 (UACC-62 melanoma)?
The GI50 was 102 nM.

What about the TGI (UACC-62 melanoma) of the same molecule?
Its TGI is 719 nM.

What about the GI50 (A498 renal) of the same molecule?
Its GI50 is 33 nM.

What about the TGI (A498 renal) of the same molecule?
Its TGI is 374 nM.

And the GI50 (COLO 205 colon)?
The GI50 was 186 nM.

And the TGI (COLO 205 colon)?
The TGI was 1480 nM.

And the GI50 (UO-31 renal)?
Its GI50 is 122 nM.

And the TGI (UO-31 renal)?
Its TGI is 6310 nM.

And the GI50 (HCT-15 colon)?
Its GI50 is 154 nM.

And the TGI (HCT-15 colon)?
Its TGI is 12500 nM.

And the GI50 (SK-MEL-2 melanoma)?
Its GI50 is 243 nM.

What about the TGI (SK-MEL-2 melanoma) of the same molecule?
The TGI was 592 nM.

What about the GI50 (OVCAR-8 ovarian) of the same molecule?
The GI50 was 86.8 nM.

What about the TGI (OVCAR-8 ovarian) of the same molecule?
The TGI was 11200 nM.

What about the GI50 (UACC-257 melanoma) of the same molecule?
Its GI50 is 429 nM.

What about the TGI (UACC-257 melanoma) of the same molecule?
The TGI was 2700 nM.

And the GI50 (K-562 leukemia)?
The GI50 was 162 nM.

And the TGI (K-562 leukemia)?
The TGI was 11800 nM.

And the GI50 (MCF7 breast)?
Its GI50 is 71.1 nM.

And the TGI (MCF7 breast)?
The TGI was 1670 nM.

What about the GI50 (HCT-116 colon) of the same molecule?
Its GI50 is 390 nM.

What about the TGI (HCT-116 colon) of the same molecule?
Its TGI is 1770 nM.
